These results are taken from patent US8273773B2 (priority 2008, dated 2012).

Data set [1] relates to HCV replicon cells (2209-23), genotype 1b replicon. In words: HCV Replicon Assay (Renilla luciferase reporter). Type of data set: cell-based, HCV genotype 1b replicon in human hepatoma Huh7 cells. The settings on record: 2209-23 cells, three days incubation.
The subject of a further data set is HCV. Conditions: monotherapy; cited from earlier work.
Data set [2] concerns the target T1, HCV polymerase (NS5B570n-Con1) (Hepatitis C virus genotype 1b, UniProt Q9WMX2).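 Note: recombinant His-tagged enzyme from E. coli, radiolabeled nucleotide incorporation into acid-insoluble RNA read by scintillation after filtration, no-enzyme background subtracted, activity relative to positive control.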
T1 construct: contains a 21 amino acid deletion at the C-terminus relative to the full-length HCV polymerase; 6-histidine (N); made in house; host or cells: E. coli strain BL21(DE) pLysS (pET17b)
In words: biochemical. Further details: species or system HCV Con1 strain.

Setting [3] is: IC50 HCV NS5B RNA Polymerase Assay (values with asterisk), values with asterisk: cIRES RNA template, 3 nM NS5B570n-Con1.
Where [4] appears, read: IC50 HCV NS5B RNA Polymerase Assay, values without asterisk, 20 nM NS5B570n-Con1 enzyme, 20 nM cIRES RNA template.

Where two headings read alike, the source gives them in different places.

The compound `COc1c(/C=C/c2ccc(NS(C)(=O)=O)cc2C(=O)O)cc(-c2ccc[nH]c2=O)cc1C(C)(C)C` [I-203, 2-{(E)-2-[3-tert-Butyl-2-methoxy-5-(2-oxo-1,2-dihydro-pyridin-3-yl)-phenyl]-vinyl}-5-methanesulfonylamino-benzoic acid] registered a melting point of 260 to 262 °C. Moreover, inhibition in data set [1] (Hepatitis C virus, 72 h) was half-maximal at 10 nM (IC50).
Compound `COc1c(/C=C/c2ccccc2C(C)=O)cc(-c2ccc[nH]c2=O)cc1C(C)(C)C` [I-243, 3-{3-[(E)-2-(2-Acetyl-phenyl)-vinyl]-5-tert-butyl-4-methoxy-phenyl}-1H-pyridin-2-one] registered an IC50 in data set [1] (Hepatitis C virus, 72 h) of 208 nM.
In the case of `COc1c(/C=C/c2ccc(NS(C)(=O)=O)cc2)cc(-c2cc(F)c[nH]c2=O)cc1C(C)(C)C` [I-142, N-(4-{(E)-2-[3-tert-Butyl-5-(5-fluoro-2-oxo-1,2-dihydro-pyridin-3-yl)-2-methoxy-phenyl]-vinyl}-phenyl)-methanesulfonamide], half-maximal inhibition in data set [1] (Hepatitis C virus, 72 h) (IC50) required 78 nM.
In the case of `NC(=O)c1ncn([C@@H]2O[C@H](CO)[C@@H](O)[C@H]2O)n1` [ribavirin, 1-((2R,3R,4S,5R)-3,4-Dihydroxy-5-hydroxymethyl-tetrahydro-furan-2-yl)-1H-[1,2,4]triazole-3-carboxylic acid amide], in the data set with HCV, the “patients in whom serum amino transferase levels are reduced to normal” value is 40%.
For the compound `COc1c(/C=C/c2ccc(NS(C)(=O)=O)cc2)cc(-c2ccc[nH]c2=O)cc1C1(C#N)CC1` [I-268, N-(4-{(E)-2-[3-(1-Cyano-cyclopropyl)-2-methoxy-5-(2-oxo-1,2-dihydro-pyridin-3-yl)-phenyl]-vinyl}-phenyl)-methanesulfonamide], in data set [1] (Hepatitis C virus, 72 h), the midpoint of inhibition, the IC50, lay at 22 nM.
For `COc1c(/C=C/c2ccc(NS(C)(=O)=O)cc2)cc(-c2ccc[nH]c2=O)cc1C(C)(C)C` [I-126, N-(4-{(E)-2-[3-tert-Butyl-2-methoxy-5-(2-oxo-1,2-dihydro-pyridin-3-yl)-phenyl]-vinyl}-phenyl)-methanesulfonamide], in data set [1] (Hepatitis C virus, 72 h), inhibition was half-maximal at 6 nM (IC50).
Compound `COc1c(/C=C/c2ccc(NS(C)(=O)=O)cc2)cc(-c2ccc[nH]c2=O)cc1C1(Cl)CC1` [I-267] showed an IC50 in data set [1] (Hepatitis C virus, 72 h) of 10.2 nM.
`Cc1cc(C(=O)O)ccc1[N+](=O)[O-]` [I-129]: the concentration for half-maximal inhibition (IC50) turned out to be 101 nM in data set [1] and 7 nM in data set [2] (values without asterisk, 20 nM NS5B570n-Con1 enzyme, 20 nM cIRES RNA template, read-out: IC50 HCV NS5B RNA Polymerase Assay).
`CC1(C)COc2c(-c3cc(F)c[nH]c3=O)cc(/C=C/c3ccc(NS(C)(=O)=O)cc3)cc21` [II-3] had a melting point of 264 to 266 °C. Half-maximal inhibition in data set [1] (Hepatitis C virus, 72 h) (IC50) was put at 54.6 nM.
In the case of `COc1c(/C=C/c2ccc(NS(C)(=O)=O)cc2)cc(-c2ccc[nH]c2=O)cc1C1(C(F)F)CC1` [I-270], the IC50 was determined as 34.4 nM in data set [1] (Hepatitis C virus, 72 h) and 1 nM in data set [2] (setting [3]).
With `COc1c(/C=C/c2ccc(NS(C)(=O)=O)cc2CO)cc(-c2cc(F)c[nH]c2=O)cc1C(C)(C)C` [I-187, N-(4-{(E)-2-[3-tert-Butyl-5-(5-fluoro-2-oxo-1,2-dihydro-pyridin-3-yl)-2-methoxy-phenyl]-vinyl}-3-hydroxymethyl-phenyl)-methanesulfonamide], the IC50 came out at 43.2 nM in data set [1] (Hepatitis C virus, 72 h) and 3 nM in data set [2] (setting [3]).
In the case of `CCc1cc(-c2ccc[nH]c2=O)cc(C(C)(C)C)c1OC` [I-30], the melting point is 213 to 214 °C. This compound yielded a half-maximal inhibitory concentration (IC50) in data set [2] (setting [4]) of 728 nM.
In turn, `COc1c(C(=O)c2cccc(O)c2)cc(-c2ccc[nH]c2=O)cc1C(C)(C)C` [I-54] yielded a melting point of 145 to 148 °C. The same compound showed an IC50 in data set [2] (setting [4]) of 9 nM.
Compound `COc1c(CCc2ccc(NS(C)(=O)=O)cc2)cc(-c2ccc[nH]c2=O)cc1C1(C)CC1` [I-108, N-(4-{2-[2-Methoxy-3-(1-methyl-cyclopropyl)-5-(2-oxo-1,2-dihydro-pyridin-3-yl)-phenyl]-ethyl}-phenyl)-methanesulfonamide] had a melting point of 192 to 194 °C. Half-maximal inhibition in data set [2] (setting [4]) (IC50) was put at 6 nM.
In turn, `COc1c(CCc2cnc(NS(C)(=O)=O)cn2)cc(-c2ccc[nH]c2=O)cc1C(C)(C)C` [I-133] had a melting point of 282 to 283 °C. This compound returned an IC50 in data set [2] (setting [4]) of 16 nM.
In the case of `COc1c(CC(C)(C#N)c2ccc(NS(C)(=O)=O)cc2)cc(-c2ccc[nH]c2=O)cc1C(C)(C)C` (stereo not shown) [I-196, N-(4-{2-[3-tert-Butyl-2-methoxy-5-(2-oxo-1,2-dihydro-pyridin-3-yl)-phenyl]-1-cyano-1-methyl-ethyl}-phenyl)-methanesulfonamide], the melting point lay in the range of 158 to 160 °C. In data set [2] (setting [4]), the midpoint of inhibition, the IC50, lay at 30 nM.
Regarding `COc1c(NC(=O)c2ccc(NS(C)(=O)=O)c(F)c2)cc(-c2ccc[nH]c2=O)cc1C(C)(C)C` [I-121], the melting point was in the range of 270 to 272 °C. In data set [2] (setting [4]), this compound had an IC50 of 7 nM.
On the same counts, the results for `CC(C)(C)c1cc(CCc2ccc(NS(C)(=O)=O)cc2)c(C(N)=O)c(-c2ccc[nH]c2=O)c1` [I-122, 4-tert-Butyl-2-[2-(4-methanesulfonylamino-phenyl)-ethyl]-6-(2-oxo-1,2-dihydro-pyridin-3-yl)-benzamide] are 170 to 172 °C and 3 nM.
`COc1c(C(=O)c2cccc(CN)c2)cc(-c2ccc[nH]c2=O)cc1C(C)(C)C` [I-106] returned a melting point of 110 to 115 °C. The midpoint of inhibition in data set [2] (setting [4]), the IC50, lay at 24 nM.
With `CC(C)(C)c1cc(CCc2ccc(NS(C)(=O)=O)cc2)cc(-c2ccc[nH]c2=O)c1` [I-74], the melting point lay within 211 to 213 °C. Also, the midpoint of inhibition in data set [2] (setting [4]), the IC50, lay at 25 nM.
